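A five-concentration, 48-hour dose response in 96-well plates underlies each endpoint, interpolated linearly between surrounding concentrations. GI50 marks 50% less growth. TGI marks complete inhibition of growth.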
Key:
Test in all cases: inhibition of tumour cell growth, NCI panel, 48 h
OVCAR-5 ovarian = test system: OVCAR-5 ovarian
COLO 205 colon = test system: COLO 205 colon
SW-620 colon = test system: SW-620 colon
OVCAR-3 ovarian = test system: OVCAR-3 ovarian
HCT-15 colon = test system: HCT-15 colon
CCRF-CEM leukemia = test system: CCRF-CEM leukemia
LOX IMVI melanoma = test system: LOX IMVI melanoma
NCI-H226 lung = test system: NCI-H226 lung
HOP-18 NSCLC = test system: HOP-18 NSCLC
DMS 273 small cell lung = test system: DMS 273 small cell lung

| SMILES | GI50 (OVCAR-5 ovarian) [µM] | TGI (OVCAR-5 ovarian) [µM] | GI50 (COLO 205 colon) [µM] | TGI (COLO 205 colon) [µM] | GI50 (SW-620 colon) [µM] | TGI (SW-620 colon) [µM] | GI50 (OVCAR-3 ovarian) [µM] | TGI (OVCAR-3 ovarian) [µM] | GI50 (HCT-15 colon) [µM] | TGI (HCT-15 colon) [µM] | GI50 (CCRF-CEM leukemia) [µM] | TGI (CCRF-CEM leukemia) [µM] | GI50 (LOX IMVI melanoma) [µM] | TGI (LOX IMVI melanoma) [µM] | GI50 (NCI-H226 lung) [µM] | TGI (NCI-H226 lung) [µM] | TGI (HOP-18 NSCLC) [µM] | TGI (DMS 273 small cell lung) [µM] |
| --- | --- | --- | --- | --- | --- | --- | --- | --- | --- | --- | --- | --- | --- | --- | --- | --- | --- | --- |
| COc1ccc(-c2n[nH]nc2-c2csc3ccccc23)cc1OC | 7.91 | > 100 | 2.82 | 11.7 | 3.09 | 43.9 | 1.94 | 7.63 | 1.67 | 14.7 | 3.29 | 32.9 | 3.04 | 15.7 | 13.2 | 74.6 | – | – |
| O=C(COc1cccc(/C=C2\COc3ccccc3C2=O)c1)Nc1nccs1 | 2.65 | 10.1 | 2.26 | 5.24 | 1.97 | 3.98 | 2.03 | 3.51 | 3.11 | 10.2 | 1.63 | 4.91 | 1.82 | 3.4 | 4.62 | 25.1 | – | – |
| O=C1OC(c2ccc(O)c(-c3ccccc3)c2)(c2ccc(O)c(-c3ccccc3)c2)c2c(Cl)c(Cl)c(Cl)c(Cl)c21 | – | > 100 | – | > 100 | – | > 100 | – | > 100 | – | > 100 | – | > 100 | – | > 100 | – | > 100 | – | – |
| COc1cccc(/C=N\Nc2ccc([N+](=O)[O-])cn2)c1O | 5.71 | 82.7 | 27.8 | > 100 | 3.94 | > 100 | 2.38 | 12 | – | 39.7 | 3.42 | 38.2 | 2.58 | 14.6 | 3.72 | 26.2 | – | – |
| N#Cc1ccccc1C#C/C=C\C#Cc1ccc(OCCCNC(=O)c2cc3ccccc3[nH]2)cc1 | 21.3 | 48.4 | 15.9 | 44.6 | 30.2 | > 100 | 18.2 | 41.4 | 26.2 | > 100 | 4.6 | 44.3 | 11.5 | 23.7 | 13.8 | 31.9 | – | – |
| CCCCCCCCCCCCCCCc1cc(O)ccc1N | 28 | > 100 | > 9.96 | > 62.5 | > 100 | > 100 | 5.1 | > 27.9 | 45.8 | > 100 | 0.0518 | – | 1.39 | 9.41 | 8.38 | > 49.2 | – | – |
| CC(=O)O[C@@H]1CO[C@H]2O[C@H]3[C@@H](C(C=O)=C[C@H](O)[C@@H]4C5=C(C(C)C)CC[C@]5(C)CC[C@@]34C)[C@@]2(O)C1=O | – | 1.12 | – | 0.249 | – | 0.213 | – | 0.278 | – | 0.687 | – | 0.418 | – | 0.687 | – | 1.02 | – | – |
| CCCCC(=O)N/N=C/c1cc(I)cc(I)c1O | 12.6 | > 100 | 3.59 | 26.9 | 3.91 | > 100 | 2.9 | 16.9 | 0.897 | > 100 | 1.23 | 12.5 | 2.62 | 13.4 | 5.93 | 36.7 | – | – |
| O=[N+]([O-])c1ccccc1N=Nc1c(O)[nH]c2ccccc12 | – | > 100 | – | > 100 | – | > 100 | – | 31.7 | – | > 100 | – | > 100 | – | > 53 | – | > 59.1 | – | – |
| O=C(O)C1C2CC3C(OC(=O)C31)C2Br (centres undefined) | – | > 100 | – | > 100 | – | > 100 | – | > 100 | – | > 100 | – | > 100 | – | > 100 | – | > 100 | – | – |
| COc1ccc(C(c2ccc(C(C)C)cc(=O)c2O)c2c(O)cc3oc(-c4ccccc4)cc(=O)c3c2O)cc1 (centres undefined) | – | – | – | 25.9 | – | > 100 | – | 19 | – | 43.6 | – | > 100 | – | 47.7 | – | – | 80.4 | 22 |
| COc1cnc2c(c1)C(=O)c1c-2n(CCCn2ccnc2)c(=O)c2cc(Cl)ccc12 | 0.309 | 35 | 0.0332 | 2.09 | 0.0262 | > 100 | 0.129 | 38.8 | 0.159 | > 100 | < 0.01 | > 100 | 0.0198 | 0.116 | 0.0464 | 0.892 | – | – |
| O=C(O)/C(=C/c1ccccc1[N+](=O)[O-])c1ccccc1 | – | > 100 | – | > 100 | – | > 100 | – | > 100 | – | > 100 | – | – | – | > 100 | – | > 100 | – | > 100 |
| CCN(CC)c1ccc2c(c1)Oc1nc(N)c(C#N)c(N)c1C2Sc1ccc(SC)cc1 (centres undefined) | 2.37 | 4.75 | 1.84 | 3.55 | 1.88 | 3.68 | 1.73 | 3.17 | 1.59 | 3.07 | 1.27 | 5.02 | 1.39 | 2.75 | 1.53 | 2.89 | – | – |
| ClCCN(CCCl)c1ccc(-n2cnc3c(Cl)ncnc32)cc1 | 17.9 | 35.9 | 5.74 | 19.1 | 1.76 | 3.29 | 1.77 | 3.15 | 1.79 | 3.65 | 3.05 | > 100 | 2 | 4.09 | 13.3 | 27.7 | – | – |
| Nc1cc(-c2ccccc2)ccc1O | > 100 | > 100 | > 100 | > 100 | > 100 | > 100 | 68.8 | > 100 | 68.7 | > 100 | 23.2 | > 100 | 62.9 | > 100 | > 100 | > 100 | – | – |
| COC(=O)c1ccccc1NC(=O)/C(=N\NC(C)(C)C)C(C#N)c1nc(-c2ccc([N+](=O)[O-])cc2)cs1 (centres undefined) | – | > 100 | – | > 100 | – | > 100 | – | > 100 | – | > 100 | – | > 100 | – | > 100 | – | > 100 | – | – |
